Measured values taken from US20060069132A1, “Azolecarboxamide herbicides” (priority 2004, published 2006).

How the values were obtained:
[1] = test system: barnyardgrass; assay: Test B pre-/postemergence herbicide test; type: in vivo, Echinochloa crus-galli
In short: (§1)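 Species tested were Echinochloa crus-galli, Ipomoea coccinea, Xanthium strumarium and Oryza sativa, treated both before emergence and at the 1- to 4-leaf stage; rice and barnyardgrass were also tested under flooding at 2 leaves. Greenhouse incubation lasted 13–15 days before visual 0–100 scoring.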

[2] = test system: Surinam grass; assay: Test B pre-/postemergence herbicide test; type: in vivo, Urochloa decumbens
In short: (§2)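 Greenhouse pot assay with simultaneous preemergence (treated seed) and postemergence (2–18 cm seedlings) applications of surfactant-containing, non-phytotoxic solvent formulations. Response scored visually 13–15 days later on a 0–100 scale, 100 meaning complete control.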

[3] = test system: cocklebur; assay: Test B pre-/postemergence herbicide test; type: in vivo, Xanthium strumarium
In short: as §1

[4] = test system: corn; assay: Test B pre-/postemergence herbicide test; type: in vivo, Zea mays
In short: as §2

[5] = test system: large crabgrass; assay: Test B pre-/postemergence herbicide test; type: in vivo, Digitaria sanguinalis
In short: as §2

[6] = test system: giant foxtail; assay: Test B pre-/postemergence herbicide test; type: in vivo, Setaria faberi
In short: as §2

[7] = test system: lambsquarters; assay: Test B pre-/postemergence herbicide test; type: in vivo, Chenopodium album
In short: as §2

[8] = test system: morningglory; assay: Test B pre-/postemergence herbicide test; type: in vivo, Ipomoea coccinea
In short: as §1

[9] = test system: pigweed; assay: Test B pre-/postemergence herbicide test; type: in vivo, Amaranthus retroflexus
In short: as §2

[10] = test system: rice; assay: Test B pre-/postemergence herbicide test; type: in vivo, Oryza sativa; conditions: preemergence; for Plant response rating, Rice: 500 g ai/ha
In short: as §1

[11] = test system: velvetleaf; assay: Test B pre-/postemergence herbicide test; type: in vivo, Abutilon theophrasti
In short: as §2

[12] = test system: blackgrass; assay: Test B postemergence herbicide test; type: in vivo, Alopecurus myosuroides
In short: (§3)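 Plants grow to 1- to 4-leaf stage (2–18 cm) for postemergence spraying, or to 2-leaf stage for the paddy test. Formulated compound is applied. Greenhouse holding lasts 13–15 days. Response is scored visually relative to controls, 0 no effect to 100 complete control; a dash means no result.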

[13] = test system: wheat; assay: Test B postemergence herbicide test; type: in vivo, Triticum aestivum; set-up: key to Wheat plant response rating: 0 = no effect, 100 = complete control
In short: (§4)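 After treating 2-leaf paddy plants or 2–18 cm postemergence plants (1 to 4 leaves) with formulated chemical, researchers kept them in a greenhouse for 13–15 days. Effects were judged visually versus controls: 0 indicates none, 100 total control.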

[14] = test system: wild oat; assay: Test B postemergence herbicide test; type: in vivo, Avena fatua
In short: as §4

[15] = test system: rice; assay: Test B flooded paddy test; type: in vivo, Oryza sativa; conditions: 1000 g ai/ha, scale 0 to 100 (0 no effect, 100 complete control)
In short: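 Greenhouse test; postemergence application to plants at 1–4 leaves (2–18 cm); paddy species at 2 leaves; evaluated visually vs controls at 13–15 days; scale 0–100 (100 = complete control).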

[16] = test system: small flower umbrella sedge; assay: Test B flooded paddy test; type: in vivo, Cyperus difformis; conditions: 1000 g ai/ha, scale 0 to 100 (0 no effect, 100 complete control)
In short: as §3

[17] = test system: ducksalad; assay: Test B flooded paddy test; type: in vivo, Heteranthera limosa; conditions: 1000 g ai/ha, scale 0 to 100 (0 no effect, 100 complete control)
In short: as §3

[18] = test system: barnyardgrass; assay: Test B flooded paddy test; type: in vivo, Echinochloa crus-galli; conditions: 1000 g ai/ha, scale 0 to 100 (0 no effect, 100 complete control)
In short: as §3

[19] = 125 g ai/ha; 0 is no effect, 100 is complete control; preemergence
[20] = 125 g ai/ha; visual rating, scale 0 (no effect) to 100 (complete control); postemergence
[21] = 500 g ai/ha; visual rating, 0 = no effect, 100 = complete control; preemergence
[22] = postemergence, 500 g ai/ha; scale 0 to 100, 0 is no effect, 100 is complete control
[23] = 125 g ai/ha; 0 = no effect, 100 = complete control; preemergence
[24] = 500 g ai/ha; visual rating 0-100, 0 no effect, 100 complete control; preemergence
[25] = postemergence, 125 g ai/ha; visual rating, scale 0 (no effect) to 100 (complete control)
[26] = postemergence, 500 g ai/ha; visual rating, scale 0 (no effect) to 100 (complete control)

CCc1cn(C(C)(C)C)nc1C(=O)Nc1cccc(C(=O)N(C)C)n1 [Compound 330]
20: Oat, Wild plant response rating [14, 22]
10: Lambsquarters plant response rating [7, 22] | Morningglory plant response rating [8, 20] | Morningglory plant response rating [8, 22] | Velvetleaf plant response rating [11, 22]
0: Plant response rating (0 to 100 scale), Barnyardgrass [1, 19] | Barnyardgrass plant response rating [1, 20] | Plant response rating, Barnyardgrass [1, 21] | Barnyardgrass plant response rating [1, 22] | Plant response rating (0 to 100 scale), Surinam Grass [2, 19] | Surinam Grass plant response rating [2, 20] | Plant response rating, Surinam Grass [2, 21] | Surinam Grass plant response rating [2, 22] | Plant response rating (0 to 100 scale), Cocklebur [3, 19] | Cocklebur plant response rating [3, 20] | Plant response rating, Cocklebur [3, 21] | Cocklebur plant response rating [3, 22] | Plant response rating (0 to 100 scale), Corn [4, 19] | Corn plant response rating [4, 20] | Plant response rating, Corn [4, 21] | Corn plant response rating [4, 22] | Plant response rating (0 to 100 scale), Crabgrass, Large [5, 19] | Crabgrass, Large plant response rating [5, 20] | Plant response rating, Crabgrass, Large [5, 21] | Crabgrass, Large plant response rating [5, 22] | Plant response rating (0 to 100 scale), Foxtail, Giant [6, 19] | Foxtail, Giant plant response rating [6, 20] | Plant response rating, Foxtail, Giant [6, 21] | Foxtail, Giant plant response rating [6, 22] | Plant response rating (0 to 100 scale), Lambsquarters [7, 19] | Lambsquarters plant response rating [7, 20] | Plant response rating, Lambsquarters [7, 21] | Plant response rating (0 to 100 scale), Morningglory [8, 19] | Plant response rating, Morningglory [8, 21] | Plant response rating (0 to 100 scale), Pigweed [9, 19] | Pigweed plant response rating [9, 20] | Plant response rating, Pigweed [9, 21] | Pigweed plant response rating [9, 22] | Plant response rating (0 to 100 scale), Rice ([10]; 125 g ai/ha, 0 is no effect, 100 is complete control) | Plant response rating, Rice ([10]; visual rating, 0 = no effect, 100 = complete control) | Plant response rating (0 to 100 scale), Velvetleaf [11, 19] | Velvetleaf plant response rating [11, 20] | Plant response rating, Velvetleaf [11, 21] | Blackgrass plant response rating [12, 20] | Blackgrass plant response rating [12, 22] | Wheat plant response rating [13, 20] | Wheat plant response rating [13, 22] | Oat, Wild plant response rating [14, 20] | Rice plant response rating [15] | Sedge, Umbrella plant response rating [16] | Ducksalad plant response rating [17] | Barnyardgrass plant response rating [18]

CCN(CC)C(=O)c1cccc(NC(=O)c2cn(C(C)(C)C)nc2C)c1 [Compound 184]
30: Plant response rating, Surinam Grass [2, 24] | Cocklebur plant response rating [3, 25] | Corn plant response rating [4, 26] | Crabgrass, Large plant response rating (0 to 100 scale) [5, 23] | Crabgrass, Large plant response rating [5, 26] | Foxtail, Giant plant response rating [6, 25] | Velvetleaf plant response rating [11, 25] | Oat, Wild plant response rating [14, 26] | Sedge, Umbrella plant response rating ([16]; visual rating, 13 to 15 days)
10: Surinam Grass plant response rating [2, 25] | Morningglory plant response rating (0 to 100 scale) [8, 23] | Velvetleaf plant response rating (0 to 100 scale) [11, 23]
20: Surinam Grass plant response rating [2, 26] | Corn plant response rating [4, 25] | Crabgrass, Large plant response rating [5, 25] | Pigweed plant response rating [9, 25] | Oat, Wild plant response rating [14, 25]
70: Plant response rating, Foxtail, Giant [6, 24] | Lambsquarters plant response rating [7, 26]
0: Barnyardgrass plant response rating (0 to 100 scale) [1, 23] | Barnyardgrass plant response rating [1, 25] | Barnyardgrass plant response rating [1, 26] | Surinam Grass plant response rating (0 to 100 scale) [2, 23] | Cocklebur plant response rating (0 to 100 scale) [3, 23] | Plant response rating, Cocklebur [3, 24] | Corn plant response rating (0 to 100 scale) [4, 23] | Plant response rating, Corn [4, 24] | Foxtail, Giant plant response rating (0 to 100 scale) [6, 23] | Morningglory plant response rating [8, 25] | Rice plant response rating (0 to 100 scale) ([10]; 125 g ai/ha, 0 = no effect, 100 = complete control) | Plant response rating, Rice ([10]; visual rating 0-100, 0 no effect, 100 complete control) | Blackgrass plant response rating [12, 25] | Blackgrass plant response rating [12, 26] | Wheat plant response rating [13, 25] | Wheat plant response rating [13, 26] | Rice plant response rating ([15]; visual rating, 13 to 15 days) | Ducksalad plant response rating ([17]; visual rating, 13 to 15 days) | Barnyardgrass plant response rating ([18]; visual rating, 13 to 15 days)
50: Lambsquarters plant response rating (0 to 100 scale) [7, 23] | Plant response rating, Morningglory [8, 24] | Plant response rating, Velvetleaf [11, 24]
60: Plant response rating, Barnyardgrass [1, 24] | Cocklebur plant response rating [3, 26] | Lambsquarters plant response rating [7, 25] | Morningglory plant response rating [8, 26] | Pigweed plant response rating [9, 26] | Velvetleaf plant response rating [11, 26]
80: Plant response rating, Lambsquarters [7, 24]
40: Foxtail, Giant plant response rating [6, 26]
100: Plant response rating, Crabgrass, Large [5, 24] | Pigweed plant response rating (0 to 100 scale) [9, 23] | Plant response rating, Pigweed [9, 24]
